Laboratory results published in patent US12343472B2, “Powder preparation, cartridge, and device” (Shin Nippon Biomedical Laboratories, Ltd., priority 2018, dated 2025).
Several values for one entry are separate records, joined by “and”; a condition that tells them apart may be missing. Equal entries are not always repeated. Where two headings read alike, the source gives them in different places.

How the values were obtained:
[1] = Blood oxytocin concentration in monkey (EIA); assay type: in vivo, cynomolgus monkey; settings: for AUC0-t / Cmax: blood oxytocin
Experimental: (§1) In order to measure the blood oxytocin concentration, blood was collected from the femoral vein with a syringe (dispensed into an EDTA-2K-containing blood collection tube) before administration and 2, 5, 10, 30, 60, 120, 240 and 480 minutes after administration (9 times in total). In order to measure the cerebrospinal fluid oxytocin concentration, cerebrospinal fluid was collected via a catheter indwelled in the cisterna magna before administration and 10, 30, 60, 120, 240 and 480 minutes after administration (7 times in total). The oxytocin concentration was measured by an EIA method involving an Oxytocin Enzyme Immunoassay Kit: Extraction-Free (Peninsula Laboratories International). This test was performed after being approved by the Animal Experimentation Ethics Committee of SNBL, Ltd.

in vivo = settings: male, cynomolgus monkey, iv
Experimental: as §1

[2] = intravenous, individual animals

Blood oxytocin concentration ([1]; 120 min, intravenous, individual animals): 0.00 ng/mL (5×) and 1.10 ng/mL
Blood oxytocin concentration ([1]; 240 min, intravenous, average n=6): 0.00 ng/mL
Blood oxytocin concentration ([1]; 240 min, intravenous, individual animals): 0.00 ng/mL
Blood oxytocin concentration ([1]; 480 min, intravenous, average n=6): 0.00 ng/mL
Blood oxytocin concentration ([1]; 480 min, intravenous, individual animals): 0.00 ng/mL
AUC0-t ([1]; male, cynomolgus monkey, blood, iv, intravenous, average n=6, read-out: AUC0-t (converted)): 37.5 ng·h/mL
Cmax ([1]; male, cynomolgus monkey, blood, iv, intravenous, average n=6, read-out: Cmax): 206 ng/mL
AUC0-t ([1]; male, cynomolgus monkey, blood, iv, intravenous, individual animals, read-out: AUC0-t (converted)): 38.1 ng·h/mL
Cmax ([1]; male, cynomolgus monkey, blood, iv, intravenous, individual animals, read-out: Cmax): 222 ng/mL
level at […] ([1]; male, cynomolgus monkey, blood, 2 min, intravenous, average n=6): 206 ng/mL
level at […] ([1]; male, cynomolgus monkey, blood, 5 min, intravenous, average n=6): 94.7 ng/mL
level at […] ([1]; male, cynomolgus monkey, blood, 10 min, intravenous, average n=6): 52.3 ng/mL
level at 0.5 h ([1]; male, cynomolgus monkey, blood, 30 min, intravenous, average n=6): 10.9 ng/mL
level at 1 h ([1]; male, cynomolgus monkey, blood, 60 min, intravenous, average n=6): 3.02 ng/mL
level at 2 h ([1]; male, cynomolgus monkey, blood, 120 min, intravenous, average n=6): 0.18 ng/mL
level at 0.5 h (in vivo): 0.204 ng/mL
level at 1 h (in vivo): 0.11 ng/mL
level at 2 h (in vivo): 0.057 ng/mL
level at 4 h (in vivo): 0.005 ng/mL
Structure (SMILES): CC[C@H](C)[C@@H]1NC(=O)[C@H](Cc2ccc(O)cc2)NC(=O)[C@@H](N)CSSC[C@@H](C(=O)N2CCC[C@H]2C(=O)N[C@@H](CC(C)C)C(=O)NCC(N)=O)NC(=O)[C@H](CC(N)=O)NC(=O)[C@H](CCC(N)=O)NC1=O [Comparative Example 13, oxytocin]
Blood oxytocin concentration ([1]; 2 min, oxytocin solution (0.4 mg/mL) intravenous, individual animals): 222.00 ng/mL and 246.00 ng/mL and 205.00 ng/mL and 168.00 ng/mL and 202.00 ng/mL and 190.00 ng/mL
Blood oxytocin concentration ([1]; 5 min, intravenous, individual animals): 110.00 ng/mL and 101.00 ng/mL and 116.00 ng/mL and 68.00 ng/mL and 68.40 ng/mL and 105.00 ng/mL
Blood oxytocin concentration ([1]; 10 min, intravenous, individual animals): 48.40 ng/mL and 64.20 ng/mL and 55.10 ng/mL and 40.40 ng/mL and 50.00 ng/mL and 55.70 ng/mL
Blood oxytocin concentration ([1]; 30 min, intravenous, individual animals): 10.50 ng/mL and 15.00 ng/mL and 11.80 ng/mL and 7.10 ng/mL and 9.60 ng/mL and 11.60 ng/mL
Blood oxytocin concentration ([1]; 60 min, intravenous, individual animals): 2.80 ng/mL (2×) and 4.50 ng/mL and 2.90 ng/mL and 2.50 ng/mL and 2.60 ng/mL
AUC0-t [1, 2]: 47.345 ng·h/mL and 39.252 ng·h/mL and 28.695 ng·h/mL and 34.345 ng·h/mL and 37.415 ng·h/mL
Cmax [1, 2]: 246.00 ng/mL and 205.00 ng/mL and 168.00 ng/mL and 202.00 ng/mL and 190.00 ng/mL
